Experimental data taken from PMC3549253, “Effect of repetitive lysine–tryptophan motifs on the bactericidal activity of antimicrobial peptides” (Amino Acids, 2012).
Converted amounts (≈) assume the structure as drawn. Where two headings read alike, the source gives them in different places. Residues, ends and D or L forms follow the SMILES beside them. No end group written: not given here.

Columns and labels:
[1] = tested on: E. coli CCARM 1229; assay: microbe, parasite or virus in culture; assay type: cell-based, Escherichia coli
Excerpt: (§1) Escherichia coli (KCTC 1682), Salmonella typhimurium (KCTC 1926), Pseudomonas aeruginosa (KCTC 1637), Staphylococcus aureus (KCTC 1621), Bacillus subtilis (KCTC 1918), and Listeria monocytogenes (KCTC 3710) were obtained from the Korean Collection for Type Cultures (KCTC). Drug-resistant E. coli strains (CCARM 1229 and CCARM 1238), S. typhimurium strains (CCARM 8007, CCARM 8009, and CCARM 8013), and S. aureus strains (CCARM 3089, CCARM 3090, CCARM 3108, CCARM 3114, and CCARM 3126) were from the Culture Collection of Antibiotic-Resistant Microbes (CCARM) at Seoul Women’s University, Korea.
(§2) The antibacterial activities of the peptides against Gram-negative, Gram-positive and antibiotic-resistant bacterial strains were evaluated using the microbroth dilution method (Park et al. [2003]). Aliquots of culture medium containing bacterial suspensions in mid-logarithmic phase at a concentration of 2 × 10^5 colony forming units (CFU)/ml were added to each well of a multiwell plate containing peptide solution serially diluted 2× in 10 mM sodium phosphate buffer (pH 7.2) or phosphate-buffered saline (PBS, 1.5 mM KH2PO4, 2.7 mM KCl, 8.1 mM Na2HPO4, 150 mM NaCl, pH 7.2). Growth inhibition was evaluated by measuring the absorbance at 620 nm using a Versa-Max microplate Elisa Reader (Molecular Devices Co., Sunnyvale, CA, USA) after 24 h of incubation at 37° C. […] All MIC measurements were the average of 3–4 independent experiments.

[2] = tested on: E. coli CCARM 1238; assay: microbe, parasite or virus in culture; assay type: cell-based, Escherichia coli
Excerpt: as §1, §2

[3] = tested on: S. typhimurium CCARM 8009; assay: microbe, parasite or virus in culture; assay type: cell-based, Salmonella typhimurium
Excerpt: as §1, §2

[4] = tested on: S. typhimurium CCARM 8013; assay: microbe, parasite or virus in culture; assay type: cell-based, Salmonella typhimurium
Excerpt: as §1, §2

[5] = tested on: S. typhimurium CCARM 8007; assay: microbe, parasite or virus in culture; assay type: cell-based, Salmonella typhimurium
Excerpt: as §1, §2

[6] = tested on: S. aureus CCARM 3108; assay: microbe, parasite or virus in culture; assay type: cell-based, Staphylococcus aureus
Excerpt: as §1, §2

[7] = tested on: S. aureus CCARM 3114; assay: microbe, parasite or virus in culture; assay type: cell-based, Staphylococcus aureus
Excerpt: as §1, §2

[8] = tested on: S. aureus CCARM 3089; assay: microbe, parasite or virus in culture; assay type: cell-based, Staphylococcus aureus
Excerpt: as §1, §2

[9] = tested on: S. aureus CCARM 3090; assay: microbe, parasite or virus in culture; assay type: cell-based, Staphylococcus aureus
Excerpt: as §1, §2

[10] = tested on: Pseudomonas aeruginosa (KCTC 1637); assay type: cell-based; conditions: KCTC 1637, 24 h, pH 7.2
Excerpt: as §1, §2

[11] = tested on: Listeria monocytogenes (KCTC 3710); assay type: cell-based; conditions: KCTC 3710, 24 h, pH 7.2
Excerpt: as §1, §2

[12] = tested on: Bacillus subtilis (KCTC 1918); assay type: cell-based; conditions: KCTC 1918, 24 h, pH 7.2
Excerpt: as §1, §2

[13] = tested on: Escherichia coli (KCTC 1682); assay: microbe, parasite or virus in culture; assay type: cell-based; conditions: pH 7.2
Excerpt: as §1, §2

[14] = tested on: Staphylococcus aureus (KCTC 1621); assay: microbe, parasite or virus in culture; assay type: cell-based; conditions: pH 7.2
Excerpt: as §1, §2

[15] = tested on: human red blood cells; assay: Human red blood cell (hRBC) hemolysis; assay type: cell-based; conditions: for MHC (minimal hemolytic concentration): minimal peptide concentration that produces 10 % hemolysis, hRBCs in PBS; for Hemolysis: 200 μM peptide in PBS pH 7.2, 4 % v/v hRBCs, 60 min at 37° C, absorbance 414 nm, 100 % = 0.1 % Triton X-100, triplicate
Procedure: Hemolytic activities of the peptides were assessed using heparinized hRBCs collected from healthy donors. Fresh hRBCs were washed three times by centrifugation at 800×g for 10 min in PBS (pH 7.2) and then resuspended in PBS. The peptides were then dissolved in PBS and added to 100 μl of stock hRBCs suspended in PBS (final RBC concentration, 4 % v/v), after which the samples were incubated with gentle agitation for 60 min at 37° C before centrifugation for 10 min at 800×g. Absorbance of the supernatants was recorded at 414 nm. In addition, control samples for zero hemolysis and 100 % hemolysis were incubated with PBS (A blank) or 0.1 % Triton X-100 (A triton), respectively. Melittin was used as a reference hemolytic peptide. Percent hemolysis was calculated according to the following equation: Each measurement was conducted in triplicate (Kim et al. [2011]).

[16] = tested on: Salmonella typhimurium (KCTC 1926); assay: microbe, parasite or virus in culture; assay type: cell-based; conditions: pH 7.2
Excerpt: as §1, §2

[17] = tested on: S. aureus CCARM 3126; assay: microbe, parasite or virus in culture
Excerpt: as §1
The antibacterial activities of the peptides against Gram-negative, Gram-positive and antibiotic-resistant bacterial strains were evaluated using the microbroth dilution method (Park et al. [2003]). Aliquots of culture medium containing bacterial suspensions in mid-logarithmic phase at a concentration of 2 × 10^5 colony forming units (CFU)/ml were added to each well of a multiwell plate containing peptide solution serially diluted 2× in 10 mM sodium phosphate buffer (pH 7.2) or phosphate-buffered saline (PBS, 1.5 mM KH2PO4, 2.7 mM KCl, 8.1 mM Na2HPO4, 150 mM NaCl, pH 7.2). Growth inhibition was evaluated by measuring the absorbance at 620 nm using a Versa-Max microplate Elisa Reader (Molecular Devices Co., Sunnyvale, CA, USA) after 24 h of incubation at 37° C.

[18] = drug-resistant strain, PBS, pH 7.2 (number in parentheses), 2 × 10^5 CFU/ml, 24 h at 37° C, average of 3–4 independent experiments
[19] = Salmonella enterica, drug-resistant strain, 10 mM sodium phosphate buffer, pH 7.2, 2 × 10^5 CFU/ml, 24 h at 37° C, average of 3–4 independent experiments, read-out: MIC
[20] = drug-resistant strain, 10 mM sodium phosphate buffer, pH 7.2, 2 × 10^5 CFU/ml, 24 h at 37° C, average of 3–4 independent experiments
[21] = drug-resistant strain, 10 mM sodium phosphate buffer, pH 7.2, 2 × 10^5 CFU/ml, 24 h at 37° C, average of 3–4 independent experiments, read-out: MIC

NCCCC[C@H](NC(=O)[C@H](Cc1c[nH]c2ccccc12)NC(=O)[C@@H](N)CCCCN)C(=O)N[C@@H](Cc1c[nH]c2ccccc12)C(N)=O [(KW)2, KWKW-NH2] (H-KWKW-NH2)
MIC ([1]; CCARM 1229, 24 h, pH 7.2): >200 (>200) μM
MIC ([2]; CCARM 1238, 24 h, pH 7.2): >200 (>200) μM
MIC ([3]; CCARM 8009, 24 h, pH 7.2): >200 (>200) μM
MIC ([4]; CCARM 8013, 24 h, pH 7.2): >200 (>200) μM
MIC ([5]; CCARM 8007, 24 h, pH 7.2): >200 (>200) μM
MIC ([6]; CCARM 3108, 24 h, pH 7.2): >200 (>200) μM
MIC ([7]; CCARM 3114, 24 h, pH 7.2): >200 (>200) μM
MIC ([8]; CCARM 3089, 24 h, pH 7.2): >200 (>200) μM
MIC ([9]; CCARM 3090, 24 h, pH 7.2): >200 (>200) μM
MIC [10]: >200 (>200) μM
MIC [11]: 200 (>200) μM
MIC [12]: >200 (>200) μM
MIC ([13]; KCTC 1682, 24 h): >200 (>200) μM
MIC ([14]; KCTC 1621, 24 h): >200 (>200) μM
MHC (minimal hemolytic concentration) [15]: 550 µM

CC1(C)S[C@@H]2[C@H](NC(=O)[C@H](N)c3ccccc3)C(=O)N2[C@H]1C(=O)O [Ampicillin, reference compound]
MIC ([1]; Escherichia coli, CCARM1229, drug-resistant strain, 10 mM sodium phosphate buffer, pH 7.2, 2 × 10^5 CFU/ml, 24 h at 37° C, average of 3–4 independent experiments, read-out: MIC): > 200 µM
MIC [1, 18]: >200 (>200) μM
MIC ([2]; Escherichia coli, CCARM1238, drug-resistant strain, 10 mM sodium phosphate buffer, pH 7.2, 2 × 10^5 CFU/ml, 24 h at 37° C, average of 3–4 independent experiments, read-out: MIC): > 200 µM
MIC [2, 18]: >200 (>200) μM
MIC [3, 19]: > 200 µM
MIC [3, 18]: >200 (>200) μM
MIC [4, 19]: > 200 µM
MIC [4, 18]: >200 (>200) μM
MIC [5, 19]: > 200 µM
MIC [5, 18]: >200 (>200) μM
MIC ([16]; Salmonella enterica, 10 mM sodium phosphate buffer, 2 × 10^5 CFU/ml, 24 h at 37° C, average of 3–4 independent experiments, read-out: MIC): 25 µM (≈ 8.74 µg/mL)
MIC ([13]; Escherichia coli, KCTC1682, 24 h): 50 µM (≈ 17.5 µg/mL)

Cc1onc(-c2ccccc2)c1C(=O)N[C@@H]1C(=O)N2[C@@H]1SC(C)(C)[C@@H]2C(=O)O [Oxacillin, reference compound]
MIC ([6]; Staphylococcus aureus, CCARM3108, drug-resistant strain, 10 mM sodium phosphate buffer, pH 7.2, 2 × 10^5 CFU/ml, 24 h at 37° C, average of 3–4 independent experiments, read-out: MIC): > 200 µM
MIC [6, 18]: >200 (>200) μM
MIC ([7]; Staphylococcus aureus, CCARM3114, drug-resistant strain, 10 mM sodium phosphate buffer, pH 7.2, 2 × 10^5 CFU/ml, 24 h at 37° C, average of 3–4 independent experiments, read-out: MIC): > 200 µM
MIC [7, 18]: >200 (>200) μM
MIC ([8]; Staphylococcus aureus, CCARM3089, drug-resistant strain, 10 mM sodium phosphate buffer, pH 7.2, 2 × 10^5 CFU/ml, 24 h at 37° C, average of 3–4 independent experiments, read-out: MIC): > 200 µM
MIC [8, 18]: >200 (>200) μM
MIC ([9]; Staphylococcus aureus, CCARM3090, drug-resistant strain, 10 mM sodium phosphate buffer, pH 7.2, 2 × 10^5 CFU/ml, 24 h at 37° C, average of 3–4 independent experiments, read-out: MIC): > 200 µM
MIC [9, 18]: >200 (>200) μM
MIC ([14]; Staphylococcus aureus, KCTC1621, 10 mM sodium phosphate buffer, 2 × 10^5 CFU/ml, 24 h at 37° C, average of 3–4 independent experiments, read-out: MIC): 12.5 µM (≈ 5.02 µg/mL)
MIC ([17]; Staphylococcus aureus, CCARM3126, 24 h, pH 7.2): > 200 µM
MIC [17, 18]: >200 (>200) μM

KWKWKW-NH2 [(KW)3, KWKWKW-NH2]
MIC [17, 20]: 50 µM
MIC [17, 18]: 200 µM
MHC (minimal hemolytic concentration) [15]: 350 µM

KWKWKWKW-NH2 [(KW)4, KWKWKWKW-NH2]
MIC [2, 20]: 12.5 (12.5) μM
MIC [2, 18]: 12.5 (12.5) μM
MIC [5, 20]: 12.5 (12.5) μM
MIC [5, 18]: 12.5 (12.5) μM
MIC [6, 20]: 12.5 (12.5) μM
MIC [6, 18]: 12.5 (12.5) μM
MIC [7, 20]: 12.5 (12.5) μM
MIC [7, 18]: 12.5 (12.5) μM
MIC [8, 20]: 12.5 (12.5) μM
MIC [8, 18]: 12.5 (12.5) μM
MIC [9, 20]: 12.5 (12.5) μM
MIC [9, 18]: 12.5 (12.5) μM
MIC [10]: 3.12 (3.12) μM
MIC [11]: 3.12 (3.12) μM
MIC ([16]; KCTC 1926, 24 h): 1.56 (1.56) μM
MIC [17, 20]: 12.5 (12.5) μM
MIC [17, 18]: 12.5 (12.5) μM
Hemolysis [15]: 8%
MHC (minimal hemolytic concentration) [15]: 210 µM

KWKWKWKWKW-NH2 [(KW)5, KWKWKWKWKW-NH2]
MIC [3, 21]: 25 µM
MIC [4, 21]: 25 µM
MIC [5, 21]: 25 µM
MIC [7, 21]: 25 µM
MIC [9, 21]: 25 µM
MIC [11]: 3.12 (3.12) μM
MIC [12]: 12.5 (12.5) μM
MIC ([14]; KCTC 1621, 24 h, read-out: MIC): 25 µM
MIC [17, 20]: 25 µM
Hemolysis [15]: 71%
MHC (minimal hemolytic concentration) [15]: 50 µM
